The values below come from US20120214862A1, “MODULATION OF FACTOR 7 EXPRESSION” (ISIS Pharmaceuticals, Inc., priority 2009, published 2012).

In the oligonucleotide strings, read from the 5' end, every base follows the letter of its sugar. An asterisk marks phosphorothioate; unmarked linkages are phosphodiester. Other units and linkages are bracketed, terminal groups are in braces. A string of capitals states the bases alone. e = 2'-O-(2-methoxyethyl) (MOE); [5mC] = 5-methylcytosine; d = 2'-deoxy (DNA)

The data set concerns human Factor 7 mRNA. As to the kind of experiment: Antisense inhibition of human Factor 7 mRNA in HepB3 cells, lipofectin, 50 nM, real-time RT-PCR. The class given is cell-based. The conditions noted are these: HepB3 cells; for % Inhibition (human Factor 7 mRNA): 50 nM, ~24 h. Here is the method:
Antisense oligonucleotides targeted to a Factor 7 nucleic acid were tested for their effects on Factor 7 mRNA in vitro. Cultured HepB3 cells at a density of 4,000 cells per well were transfected using lipofectin reagent with 50 nM antisense oligonucleotide. After a treatment period of approximately 24 hours, RNA was isolated from the cells and Factor 7 mRNA levels were measured by real-time RT-PCR, as described herein. Factor 7 mRNA levels were adjusted according to total RNA content as measured by RIBOGREEN®. Results are presented as percent inhibition of Factor 7, relative to untreated control cells.
(§1) Antisense oligonucleotides targeted to a Factor 7 nucleic acid were designed and tested for their effects on Factor 7 mRNA in vitro. Certain antisense oligonucleotides from Table 3 were also retested for their effects on Factor 7 mRNA in vitro. Cultured HepB3 cells at a density of 4,000 cells per well were transfected using lipofectin reagent with 50 nM antisense oligonucleotide. After a treatment period of approximately 24 hours, RNA was isolated from the cells and Factor 7 mRNA levels were measured by real-time RT-PCR, as described herein. Human Factor 7 primer probe set RTS 2927 was used to measure mRNA levels. Factor 7 mRNA levels were adjusted according to total RNA content as measured by RIBOGREEN®. Results are presented as percent inhibition of Factor 7, relative to untreated control.
as §1, with “tested” for “tested for their effects on Factor 7 mRNA in vitro. Certain antisense oligonucleotides from Table 3 were also retested”
These gapmers were designed by creating gapmers shifted slightly upstream and downstream (i.e. “microwalk”) of the original gapmers from Table 7. Gapmers were also created with various motifs, e.g. 5-10-5 MOE, 3-14-3 MOE, and 2-13-5 MOE. These gapmers were tested in vitro. Cultured HepB3 cells at a density of 4,000 cells per well were transfected using lipofectin reagent with 50 nM antisense oligonucleotide. After a treatment period of approximately 24 hours, RNA was isolated from the cells and Factor 7 mRNA levels were measured by real-time RT-PCR. Factor 7 mRNA levels were adjusted according to total RNA content, as measured by RIBOGREEN®. Results are presented as percent inhibition of Factor 7, relative to untreated control cells.
Background: In qPCR the cycle at which signal appears reflects the starting amount.

The mark [1] stands for this setting: gapmers targeted to nucleobases 13760 to 13789 of SEQ ID NO: 1 (Table 10).
Where [2] appears, read: lipofectin, 50 nM antisense oligonucleotide, approximately 24 hours, primer probe set RTS 2927, relative to untreated control.
[3] abbreviates: gapmers (5-10-5, 3-14-3, 2-13-5 MOE) targeted to nucleobases 4868 to 4899 of SEQ ID NO: 1.
Setting [4] is: Example 1, lipofectin, relative to untreated control cells.

Regarding “422256 (antisense e[5mC]*eA*d[5mC]*d[5mC]*d[5mC]*dG*d[5mC]*d[5mC]*dG*dG*d[5mC]*dT*d[5mC]*dT*dG*e[5mC]*eT*e[5mC]*eA*eT) [compound 422256]”, the “% Inhibition of human Factor 7 mRNA levels” value under setting [1] was 29%.

Regarding “416506 (antisense e[5mC]*eT*eT*eT*eA*dA*dA*dA*dT*d[5mC]*dA*dG*dT*dT*dT*e[5mC]*eA*e[5mC]*eA*e[5mC]) [compound 416506]”, the “% Inhibition of human Factor 7 mRNA levels” value under setting [2] stood at 18%.

“422298 (antisense eG*e[5mC]*d[5mC]*d[5mC]*dG*dA*dG*dT*dT*d[5mC]*dT*dG*d[5mC]*dA*dG*eG*eA*eG*e[5mC]*eG) [compound 422298]”: the “% Inhibition of human Factor 7 mRNA levels” value under setting [3] was 62%. As for “407898 (antisense e[5mC]*e[5mC]*eA*eG*e[5mC]*dA*dG*dA*dG*dA*dG*dT*dA*d[5mC]*d[5mC]*e[5mC]*e[5mC]*eT*e[5mC]*eG) [compound 407898]”, the “% Inhibition (human Factor 7 mRNA)” value under setting [4] was determined as 49%.

With “416526 (antisense eT*eG*eT*e[5mC]*e[5mC]*dA*d[5mC]*dA*dT*dG*dA*d[5mC]*d[5mC]*d[5mC]*d[5mC]*eA*e[5mC]*eA*eG*eG) [compound 416526]”, under setting [2], the “% Inhibition of human Factor 7 mRNA levels” value is on record as 19%. As to “422261 (antisense eT*eG*d[5mC]*dG*d[5mC]*d[5mC]*dA*d[5mC]*d[5mC]*d[5mC]*dG*d[5mC]*d[5mC]*dG*dG*e[5mC]*eT*e[5mC]*eT*eG) [compound 422261]”, the “% Inhibition of human Factor 7 mRNA levels” value under setting [1] is listed as 47%. In the case of “422186 (antisense eG*eG*eA*dA*dG*dA*dA*dG*dG*dG*dA*d[5mC]*dG*dG*dA*dA*dG*eG*eT*eG) [compound 422186]”, under “Example 4, lipofectin, relative to untreated control”, the “% Inhibition (human Factor 7 mRNA)” value stood at 14%.

“416557 (antisense eT*e[5mC]*e[5mC]*e[5mC]*eA*dG*dG*d[5mC]*dA*dA*dA*dG*d[5mC]*dT*dG*e[5mC]*eT*e[5mC]*eA*eG) [compound 416557]”: the “% Inhibition of human Factor 7 mRNA levels” value under setting [2] was 56%. For “407626 (antisense eT*e[5mC]*eT*eT*eG*dA*dT*dT*dT*dT*dG*dT*d[5mC]*dG*dA*eA*eA*e[5mC]*eA*eG) [compound 407626]”, the “% Inhibition (human Factor 7 mRNA)” value under setting [4] was 82%. On to “407614 (antisense eT*eG*e[5mC]*eA*eG*dT*dA*d[5mC]*dT*dG*d[5mC]*dT*d[5mC]*dA*d[5mC]*eA*eG*e[5mC]*e[5mC]*eG) [compound 407614]”, for which, under setting [4], the “% Inhibition (human Factor 7 mRNA)” value came out at 78%. As to “422293 (antisense eA*eG*dT*dT*d[5mC]*dT*dG*d[5mC]*dA*dG*dG*dA*dG*d[5mC]*dG*eG*e[5mC]*e[5mC]*eT*eA) [compound 422293]”, the “% Inhibition of human Factor 7 mRNA levels” value under setting [3] was 69%. As to “422115 (antisense eG*e[5mC]*eG*e[5mC]*e[5mC]*dA*d[5mC]*d[5mC]*d[5mC]*dG*d[5mC]*d[5mC]*dG*dG*d[5mC]*eT*e[5mC]*eT*eG*e[5mC]) [compound 422115]”, under setting [1], the “% Inhibition of human Factor 7 mRNA levels” value stood at 66%. In the case of “416529 (antisense eG*eG*eG*e[5mC]*eT*dG*dA*dG*dA*d[5mC]*dT*dG*dA*dG*dG*eT*e[5mC]*eA*eG*e[5mC]) [compound 416529]”, under setting [2], the “% Inhibition of human Factor 7 mRNA levels” value was 18%. Regarding “422113 (antisense eG*e[5mC]*e[5mC]*eA*e[5mC]*d[5mC]*d[5mC]*dG*d[5mC]*d[5mC]*dG*dG*d[5mC]*dT*d[5mC]*eT*eG*e[5mC]*eT*e[5mC]) [compound 422113]”, the “% Inhibition of human Factor 7 mRNA levels” value under setting [1] turned out to be 68%. Turning to “407631 (antisense eG*eG*eG*e[5mC]*eA*d[5mC]*d[5mC]*dA*d[5mC]*dA*dT*dG*dG*dT*d[5mC]*eA*eG*eT*eG*eA) [compound 407631]”, the “% Inhibition (human Factor 7 mRNA)” value under setting [4] is 66%. Regarding “422218 (antisense e[5mC]*eG*eA*dG*dT*dT*d[5mC]*dT*dG*d[5mC]*dA*dG*dG*dA*dG*d[5mC]*dG*eG*e[5mC]*e[5mC]) [compound 422218]”, under setting [3], the “% Inhibition of human Factor 7 mRNA levels” value turned out to be 70%. With “416564 (antisense eG*e[5mC]*e[5mC]*eA*e[5mC]*dT*d[5mC]*dA*d[5mC]*dA*dG*dA*dA*dA*dG*e[5mC]*eT*eG*eG*eA) [compound 416564]”, the “% Inhibition of human Factor 7 mRNA levels” value under setting [2] worked out at 0%.
